From article PMC10580383, “Development of Melanocortin 4 Receptor Agonists by Exploiting Animal-Derived Macrocyclic, Disulfide-Rich Peptide Scaffolds” (ACS Pharmacology & Translational Science, 2023)
Like-named read-outs stand apart in the source and are kept apart here. Where a SMILES comes first, the peptide text is derived from it. Bridges are numbered along the chain shown (N, C = ends). Where no end group is shown, it is not given here. [ ]: non-standard residue; d: D form. pGlu = O=C1CC[C@@H](C(=O)O)N1

Key:
[1] = biological target: T1, mouse melanocortin 4 receptor (MC4R) (Mus musculus, UniProt P56450); assay: cAMP second messenger quantification assay (Cisbio HTRF cAMP Gs kit); type: cell-based
T1 construct: expressed in transfected cells; host or cells: HEK293 / HEK293T, transient transfection
Procedure: Figure 3 Functional cAMP assay of synthesized peptide analogues targeting MC4R. The accumulation of adenylyl cyclase-catalyzed cAMP of (A) tachylplesin-1-like peptides (Ta1LPs, green), (B) protegrin-4-like peptides ([…], pink), (C) arenicin-3-like peptides (Ar3LPs, orange), and (D) gomesin-like peptides (GoLPs, blue) was measured in HEK293 cells transiently expressing mouse melanocortin 4 receptor (MC4R). […] Data are from three independent experiments and are shown as mean ± SEM.
Assays were performed on cells transiently expressing mouse MC4R-EGFP. BamHI and SacI restriction sites were used to clone mouse MC4R N-terminally into a pEGFP-N1 vector. Peptide ligands were assayed for […] in a 384-well format and triplicate according to the Cisbio protocol. Briefly, 5 μL containing 10,000 cells per well was incubated with 5 μL of peptide solutions prepared 2× in 1× stimulation buffer. Following an incubation of peptide ligands at 37 °C for 30 min, d2-labeled cAMP and cryptate-labeled antibody (5 μL of each) were added to the mixture and further incubated for at least 1 h at room temperature. Subsequently, cAMP levels were quantified on a Flexstation 3 (Molecular Devices, San Jose, USA) using homogeneous time-resolved fluorescence resonance energy transfer and the ratio 665/620 nm. Samples were measured in technical triplicates.
Data analysis was performed with GraphPad Prism (GraphPad Software, San Diego). The potency (EC50) and maximum efficacy (Emax) values of peptide ligands were derived from functional data fitted to three- or four-parameter nonlinear regression curves constrained to a bottom of zero.

[2] = tested on: mouse MC4R-EGFP; assay: kinetic BRET β-arrestin-2 recruitment assay (MC4R-EGFP / β-arrestin-2-nanoluciferase); type: cell-based; conditions: ligand 10 μM; HEK293 cells, MC4R-EGFP and β-arrestin-2-NLuc; mean ligand-induced BRET from 312 to 2433 s, NDP-α-MSH set as 100; three independent experiments
Procedure: Considering the physiological relevance of β-arrestins and their critical role in orchestrating MC4R signaling, we measured β-arrestin-2 recruitment in a kinetic bioluminescence resonance energy transfer (BRET) assay. We screened at a ligand concentration of 10 μM in HEK293 cells transiently expressing MC4R coupled to EGFP, and β-arrestin-2 fused to nanoluciferase. […] By contrast, Pr4LP1, Ar3LP1, Ar3LP2, and GoLP1 recruited β-arrestin-2 with greater efficiencies (>130%) than NDP-α-MSH (Figures 4 and S5B,C).
Figure 4 β-Arrestin-2 recruitment of designed MC4R peptide analogues. BRET assay was used to measure the transient interaction of MC4R-EGFP with β-arrestin-2-nanoluciferase (NLuc) in HEK293 cells over time following cell treatment with 10 μM of tachyplesin-1-like peptides (Ta1LPs, green), protegrin-4-like peptides (Pr4LPs, pink), arenicin-3-like peptides (Ar3LPs, orange), and gomesin-like peptides (GoLPs, blue). Relative BRET quantification was determined by calculating the mean value of ligand-induced BRET for each peptide ligand from 312 to 2433 s which was then divided by the mean value of ligand-induced BRET of NDP-α-MSH set as 100. Data are shown as mean ± SEM from three independent experiments.
BRET assay was performed as previously described.[32] Briefly, β-arrestin-2-nano luciferase and mouse MC4R-EGFP were cotransfected in a 1:10 ratio. 16 h post-transfection, 50,000 cells in 100 μL of phenol red-free DMEM with 10% FBS per well were transferred into white clear bottom 96-well plates and incubated overnight. On the day of the assay, cells were incubated for 1 h at 37 °C in phenol red- and serum-free DMEM. Furimazine (diluted 1:50) and peptide ligands (4×) were prepared in Hank’s balanced salt solution (HBSS), respectively. Prior to establishing the baseline and measuring kinetic BRET, furimazine was incubated for 5 min at 37 °C. The ability of peptide ligands to induce β-arrestin-2 recruitment was assessed by measuring light emissions for EGFP (510 nm) and nanoluciferase (460 nm) over 35 min using Flexstation 3 (Molecular Devices, San Jose, USA). The BRET ratio was calculated as emission EGFP (510 nm)/emission nanoluciferase (460 nm). The ligand-induced BRET was calculated by subtracting […].

[3] = biological target: mouse melanocortin 4 receptor fused to EGFP (mouse) (UniProt P56450)
[4] = HEK293, read-out: efficacy cAMP Emax ± SD

Sequence of mouse melanocortin 4 receptor fused to EGFP (mouse) (P56450 whole entry, the tested form may be a part): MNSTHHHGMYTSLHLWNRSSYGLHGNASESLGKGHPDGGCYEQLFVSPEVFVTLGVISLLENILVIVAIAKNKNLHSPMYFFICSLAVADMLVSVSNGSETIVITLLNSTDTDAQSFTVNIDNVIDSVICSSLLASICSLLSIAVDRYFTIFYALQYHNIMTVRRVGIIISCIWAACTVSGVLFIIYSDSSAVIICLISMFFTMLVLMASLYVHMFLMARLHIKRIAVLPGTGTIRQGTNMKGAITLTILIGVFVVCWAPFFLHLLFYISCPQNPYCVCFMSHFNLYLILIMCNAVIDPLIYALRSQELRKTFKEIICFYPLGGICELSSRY
T1 sequence (P56450 whole entry): as the sequence (P56450 whole entry, the tested form may be a part) above

Molecule	cAMP accumulation (Cisbio HTRF) in HEK293 cells transiently expressing mouse MC4R-EGFP: EC50 [3]	cAMP accumulation (Cisbio HTRF) in HEK293 cells transiently expressing mouse MC4R-EGFP: Emax (normalised to NDP-α-MSH) [3]	EC50 [1]	Emax [1, 4]	BRET efficacy of β-arrestin-2 recruitment relative to NDP-α-MSH [2]	Emax ([1]; HEK293; read-out: efficacy cAMP Emax ± SD)
CC(C)[C@@H]1NC(=O)[C@H](CCCNC(=N)N)NC(=O)[C@H](Cc2c[nH]c3ccccc23)NC(=O)[C@H](Cc2c[nH]cn2)NC(=O)[C@@H](Cc2ccccc2)NC(=O)[C@H](Cc2c[nH]cn2)NC(=O)[C@H](Cc2ccc(O)cc2)NC(=O)[C@H](C(C)C)NC(=O)[C@@H]2CSSC[C@H](NC1=O)C(=O)N[C@@H](Cc1ccc(O)cc1)C(=O)N[C@@H](CCCNC(=N)N)C(=O)N[C@@H](CCCNC(=N)N)C(=O)N[C@H](C(=O)N[C@@H](CC(N)=O)C(N)=O)CSSC[C@H](NC(=O)[C@H](Cc1ccccc1)NC(=O)CN)C(=O)N[C@@H](Cc1c[nH]c3ccccc13)C(=O)N[C@@H](Cc1ccc(O)cc1)C(=O)N[C@@H](C(C)C)C(=O)N2 [Ar3LP4] (H-GFCWYVCVYH[dF]HWRVCYRRCN-NH2; disulfide 3-20, 7-16)	–	–	0.794 µM	106 ± 14%	less than 60%	–
CC(C)[C@@H]1NC(=O)[C@H](Cc2c[nH]c3ccccc23)NC(=O)[C@H](Cc2c[nH]cn2)NC(=O)[C@@H](Cc2ccccc2)NC(=O)[C@H](Cc2c[nH]cn2)NC(=O)[C@@H]2CCCN2C(=O)[C@H](Cc2ccc(O)cc2)NC(=O)[C@H](C(C)C)NC(=O)[C@@H]2CSSC[C@H](NC1=O)C(=O)N[C@@H](Cc1ccc(O)cc1)C(=O)N[C@@H](CCCNC(=N)N)C(=O)N[C@@H](CCCNC(=N)N)C(=O)N[C@H](C(=O)N[C@@H](CC(N)=O)C(N)=O)CSSC[C@H](NC(=O)[C@H](Cc1ccccc1)NC(=O)CN)C(=O)N[C@@H](Cc1c[nH]c3ccccc13)C(=O)N[C@@H](Cc1ccc(O)cc1)C(=O)N[C@@H](C(C)C)C(=O)N2 [Ar3LP2] (H-GFCWYVCVYPH[dF]HWVCYRRCN-NH2; disulfide 3-20, 7-16)	–	–	0.02 µM	–	> 130%	95 ± 10%
CC(C)C[C@@H]1NC(=O)[C@H](CCCNC(=N)N)NC(=O)[C@H](CCCNC(=N)N)NC(=O)[C@@H](NC(=O)[C@@H]2CCC(=O)N2)CSSC[C@@H](C(=O)N[C@@H](CCCNC(=N)N)C(=O)NCC(=O)N[C@@H](CCCNC(=N)N)C(N)=O)NC(=O)[C@H](Cc2ccc(O)cc2)NC(=O)[C@H]([C@@H](C)O)NC(=O)[C@H](C(C)C)NC(=O)[C@@H]2CSSC[C@H](NC1=O)C(=O)N[C@@H](Cc1c[nH]cn1)C(=O)N[C@H](Cc1ccccc1)C(=O)N[C@@H](Cc1c[nH]cn1)C(=O)N[C@@H](Cc1c[nH]c3ccccc13)C(=O)N2 [GoLP2] ([pGlu]CRRLCH[dF]HWCVTYCRGR-NH2; disulfide 2-15, 6-11)	–	–	0.158 µM	116 ± 11%	less than 60%	–
CC(C)[C@@H]1NC(=O)[C@H](CCCNC(=N)N)NC(=O)[C@H](Cc2c[nH]c3ccccc23)NC(=O)[C@H](CCCNC(=N)N)NC(=O)[C@@H](Cc2ccccc2)NC(=O)[C@H](Cc2c[nH]cn2)NC(=O)[C@H](Cc2ccc(O)cc2)NC(=O)[C@H](C(C)C)NC(=O)[C@@H]2CSSC[C@H](NC1=O)C(=O)N[C@@H](Cc1ccc(O)cc1)C(=O)N[C@@H](CCCNC(=N)N)C(=O)N[C@@H](CCCNC(=N)N)C(=O)N[C@H](C(=O)N[C@@H](CC(N)=O)C(N)=O)CSSC[C@H](NC(=O)[C@H](Cc1ccccc1)NC(=O)CN)C(=O)N[C@@H](Cc1c[nH]c3ccccc13)C(=O)N[C@@H](Cc1ccc(O)cc1)C(=O)N[C@@H](C(C)C)C(=O)N2 [Ar3LP5] (H-GFCWYVCVYH[dF]RWRVCYRRCN-NH2; disulfide 3-20, 7-16)	–	–	0.251 µM	99 ± 8%	less than 60%	–
RGGRLCYCH[dF]HWCFCVGR-NH2 (disulfide 8-13, 6-15; N-terminus assumed; SMILES CC(C)C[C@H](NC(=O)[C@H](CCCNC(=N)N)NC(=O)CNC(=O)CNC(=O)[C@@H](N)CCCNC(=N)N)C(=O)N[C@H]1CSSC[C@@H](C(=O)N[C@H](C(=O)NCC(=O)N[C@@H](CCCNC(=N)N)C(N)=O)C(C)C)NC(=O)[C@H](Cc2ccccc2)NC(=O)[C@@H]2CSSC[C@H](NC(=O)[C@H](Cc3ccc(O)cc3)NC1=O)C(=O)N[C@@H](Cc1c[nH]cn1)C(=O)N[C@H](Cc1ccccc1)C(=O)N[C@@H](Cc1c[nH]cn1)C(=O)N[C@@H](Cc1c[nH]c3ccccc13)C(=O)N2) [protegrin-4-like peptide 2]	0.15 µM	97%	–	–	–	–

The next lines start with results.

cAMP accumulation (Cisbio HTRF) in HEK293 cells transiently expressing mouse MC4R-EGFP: EC50 [3]	cAMP accumulation (Cisbio HTRF) in HEK293 cells transiently expressing mouse MC4R-EGFP: Emax (normalised to NDP-α-MSH) [3]	Molecule	EC50 [1]	Emax [1, 4]	BRET efficacy of β-arrestin-2 recruitment relative to NDP-α-MSH [2]	Emax ([1]; HEK293; read-out: efficacy cAMP Emax ± SD)
0.017 µM	98%	KWCFRVCH[dF]RWCYRRCR-NH2 (disulfide 7-12, 3-16; N-terminus assumed; SMILES CC(C)[C@@H]1NC(=O)[C@H](CCCNC(=N)N)NC(=O)[C@H](Cc2ccccc2)NC(=O)[C@@H](NC(=O)[C@H](Cc2c[nH]c3ccccc23)NC(=O)[C@@H](N)CCCCN)CSSC[C@@H](C(=O)N[C@@H](CCCNC(=N)N)C(N)=O)NC(=O)[C@H](CCCNC(=N)N)NC(=O)[C@H](CCCNC(=N)N)NC(=O)[C@H](Cc2ccc(O)cc2)NC(=O)[C@@H]2CSSC[C@H](NC1=O)C(=O)N[C@@H](Cc1c[nH]cn1)C(=O)N[C@H](Cc1ccccc1)C(=O)N[C@@H](CCCNC(=N)N)C(=O)N[C@@H](Cc1c[nH]c3ccccc13)C(=O)N2) [tachyplesin-1-like peptide 3]	–	–	–	–
0.21 µM	99%	RGGRLCYCH[dF]RWCFCVGR-NH2 (disulfide 8-13, 6-15; N-terminus assumed; SMILES CC(C)C[C@H](NC(=O)[C@H](CCCNC(=N)N)NC(=O)CNC(=O)CNC(=O)[C@@H](N)CCCNC(=N)N)C(=O)N[C@H]1CSSC[C@@H](C(=O)N[C@H](C(=O)NCC(=O)N[C@@H](CCCNC(=N)N)C(N)=O)C(C)C)NC(=O)[C@H](Cc2ccccc2)NC(=O)[C@@H]2CSSC[C@H](NC(=O)[C@H](Cc3ccc(O)cc3)NC1=O)C(=O)N[C@@H](Cc1c[nH]cn1)C(=O)N[C@H](Cc1ccccc1)C(=O)N[C@@H](CCCNC(=N)N)C(=O)N[C@@H](Cc1c[nH]c3ccccc13)C(=O)N2) [protegrin-4-like peptide 3]	–	–	–	–
0.048 µM	97%	KWCFRVCH[dF]HWCYRRCR-NH2 (disulfide 7-12, 3-16; N-terminus assumed; SMILES CC(C)[C@@H]1NC(=O)[C@H](CCCNC(=N)N)NC(=O)[C@H](Cc2ccccc2)NC(=O)[C@@H](NC(=O)[C@H](Cc2c[nH]c3ccccc23)NC(=O)[C@@H](N)CCCCN)CSSC[C@@H](C(=O)N[C@@H](CCCNC(=N)N)C(N)=O)NC(=O)[C@H](CCCNC(=N)N)NC(=O)[C@H](CCCNC(=N)N)NC(=O)[C@H](Cc2ccc(O)cc2)NC(=O)[C@@H]2CSSC[C@H](NC1=O)C(=O)N[C@@H](Cc1c[nH]cn1)C(=O)N[C@H](Cc1ccccc1)C(=O)N[C@@H](Cc1c[nH]cn1)C(=O)N[C@@H](Cc1c[nH]c3ccccc13)C(=O)N2) [tachyplesin-1-like peptide 2]	–	–	–	–
